Assay results: patent US10494402B2, “Peptides that stimulate subcutaneous adipogenesis” (The Regents of the University of California, priority 2012, dated 2019)

What was measured:
[1] = system: mesenchymal stem cells or papillary fibroblasts; assay: Adipogenesis by RHAMM antagonists in tissue culture and in vivo (summary statements)
Text: (§1) We hypothesized that the fragment and the antibody were blocking RHAMM function by competitive inhibition and by direct binding/blocking of RHAMM, respectively. Using truncation analyses, the size of the peptide was further reduced to 32 amino acids ([…] (SEQ ID NO: 92)) and it was shown that adipogenic activity is localized to a 15 amino acid peptide (KLKDENSQLKSEVSK (SEQ ID NO: 2); “peptide B” or “B-1” herein) shown in FIG. 2. This peptide was chemically synthesized to use as a competitive blocker, and antibodies were prepared against this sequence tagged with keyhold lymphocyte hemacyanin (KLH) to directly bind/block RHAMM function.
The RHAMM sequence that contains adipogenic activity also contains the hyaluronan binding region of this protein.
All of these reagents can replace insulin in their ability to promote adipogenesis in mesenchymal stem cells or papillary fibroblasts.

RHAMM = assay: Blocking of RHAMM function; conditions: competitive blocker / direct binding
Text: as §1

nude guinea pigs = assay: Subcutaneous fat deposition in nude guinea pigs; type: in vivo, guinea pig; conditions: injection on upper back and in ear fat pad; control collagen gel vehicle only
Description: Peptide B (SEQ ID NO: 2) was also tested for its effect in nude guinea pigs since their skin structure resembles human facial skin. In particular, the skin of this animal model is more similar to human skin than is rat skin, in that it is hairless and the keratinocyte layer is thicker than in the rat model. […] Thus, peptide B was effective in promoting adipogenesis in this nude guinea pig model.

Human pre-adipocytes = assay: Adipogenesis in 3D collagen gel culture; type: cell-based; conditions: 3D collagen gels in the presence of adipogenic cocktail
Description: The adipogenic activity of peptide B (SEQ ID NO:2) was also examined using a three-dimensional (3D) culture system that models human skin.
Human pre-adipocytes were cultured in 3D collagen gels in the presence of the adipogenic cocktail described above (Adipocyte Differentiation Medium (ZenBio catalog no. DM-2)) and exposed to peptide B (SEQ ID NO: 2). […] The 3D results predict the ability of the B peptide to promote adipogenesis in vivo.

[2] = system: 2D rat Pre-adipocytes (rat mesenchymal stem cells); assay: Adipogenic potential ranking in 2D tissue culture, rat pre-adipocytes; type: cell-based; conditions: ranked on a scale of 0-5 with 5 representing the highest possible score
Description: Examples of the adipogenic effects of RHAMM antagonists (peptide B (SEQ ID NO: 2), peptide P15-1 (SEQ ID NO. 1), and the antibody to peptide B) are summarized in Table 1. Peptide P15-1, peptide B, and a RHAMM antibody were assayed for their effects on pre-adipocyte stem cells in culture and when injected into the dermis of aged rats. Reagents were ranked on a scale of 0-5 with 5 representing the highest possible score and a completely filled in Harvey ball. “2D” refers to two-dimensional tissue culture.

[3] = system: Female Fisher retired breeder rats; assay: In vivo adipogenic activity in female retired breeder rat model; conditions: 100 μg subcutaneous in 1 ml collagen vehicle; 7 days
Description: The adipogenic activity of the KSEVSK 6-mer (SEQ ID NO: 3) was also evaluated in vivo in a female retired breeder rat model. Female Fisher retired breeder rats (>9 months old) were used in these studies. The rats were injected subcutaneously with a 100 μg dose of the KSEVSK 6-mer peptide in 1 ml of a collagen vehicle or with collagen vehicle alone. The collagen vehicle contained 1 mg/ml of rat tail Type I collagen. […] Rats were injected with KSEVSK 6-mer peptide and collagen vehicle at sites A and C and with collagen vehicle only at sites B and D. Animals were maintained on a regular diet for 7 days and then euthanized Skin was harvested by cutting around the injected area, ensuring that underlying adipose tissue was retained with the skin at the injection sites. The tissue was then photographed and fat accumulation was assessed.

Substance	adipogenesis in tissue culture and in vivo [1]	adipogenicity relative to the other reagents of Table 1 [1]	RHAMM function (RHAMM)	subcutaneous fat deposition (H and E staining) (nude guinea pigs)	adipogenesis (light refractory lipid droplets) (Human pre-adipocytes)	adipogenic potential, 2D rat Pre-adipocytes (rat mesenchymal stem cells) [2]	fat pad surface area vs collagen vehicle alone [3]
KLKDENSQLKSEVSK [peptide B]	promote adipogenesis in tissue culture and in vivo	the most adipogenic of these reagents	effectively block RHAMM function	increase in subcutaneous fat deposition	promoted adipogenesis	5	–
KSEVSK [KSEVSK 6-mer]	–	–	–	–	–	–	significantly larger
